According to patent EP4653437A2 (Innovo Therapeutics Inc., priority 2023, dated 2024):

Tests used:
human 15-PGDH = biological target: T1, human 15-PGDH (Homo sapiens, UniProt P15428); test: Evaluation of 15-PGDH inhibitory activity (fluorescence enzyme assay, NAD+/PGE2); type: biochemical; settings: human 15-PGDH enzyme, fluorescence Vmax
T1 construct: purchased R&D System 5660-DH
T1 sequence (P15428 1-266): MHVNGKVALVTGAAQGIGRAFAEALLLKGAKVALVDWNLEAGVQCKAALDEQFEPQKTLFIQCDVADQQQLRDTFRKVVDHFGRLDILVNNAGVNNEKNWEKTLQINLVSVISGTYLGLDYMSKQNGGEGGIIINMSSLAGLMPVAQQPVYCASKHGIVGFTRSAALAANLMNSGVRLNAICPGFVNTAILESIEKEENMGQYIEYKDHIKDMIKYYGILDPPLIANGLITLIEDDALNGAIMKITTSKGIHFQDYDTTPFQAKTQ
Procedure: 15-PGDH inhibition activity of Example compounds was measured as follows. 6.7 ng of human 15-PGDH (R&D System# 5660-DH) enzyme (10 µL) was added to a black 96 well plate, 60 µL of buffer (50 mM Tris-HCl, pH 7.5, 0.01% Tween 20) was added, and 10 µL of 200 µM β-Nicotinamide adenine dinucleotide sodium salt (Sigma, Cat# N0632-5G) was added. 10 µL of (10x) compound solution in DMSO was added and reacted for 10 minutes at room temperature.

A549 cells = test: Measurement of PGE2-increasing activity in A549 cells (IL-1β stimulated, PGE2 quantified in supernatant); type: cell-based; settings: Homo sapiens, 24 h; concentration of 1 µM of each compound; IL-1β treated A549 cells; read-out: Increased PGE2 production in A549 cells
Procedure: A549 cells were prepared at a cell number of 1 x 10^5/mL in F12K medium containing 10% FBS (Fetal Bovine Serum), and 2 x 10^4/200 µL was added to each well of a 96-well cell culture plate, and then cultured in an incubator with 5% CO2 at 37 °C for 24 hours. After the culture was complete and all F12K medium was removed, all wells were washed once with 100 µL of PBS, and treated with 160 µL of serum-free F12K medium. Then, 20 µL of IL-1β diluted 10-fold to a concentration of 1 ng/mL in serum-free F12K medium was treated to wells to be treated with IL-1β, and 20 µL of serum-free F12K medium was treated to wells not treated with IL-1β. For the wells to be treated with the compound, 20 µL of the compound dissolved in 100% DMSO was diluted to a concentration 10 times of the desired compound concentration in serum-free F12K medium so that the final DMSO concentration treated to the cells was 0.1%, and for the wells not to be treated with the compound, 20 µL of DMSO diluted in serum-free F12K medium so that the final DMSO concentration treated to the cells was 0.1% was treated. In order to confirm the increase or decrease in the secretion amount of PGE2 in the supernatant collected after culturing for 24 hours in an incubator with 5% CO2 at 37 °C, PGE2 was quantified using the Prostaglandin E2 Parameter (SKGE004B).

Compound	IC50 (human 15-PGDH) [nM]	fold induction at 1 µM (A549 cells)
O=C(c1cnn2c(-c3ccc(F)nc3F)cccc12)N1CCCCC1 [Example 266, (7-(2,6-difluoropyridin-3-yl)pyrazolo[1,5-a]pyridin-3-yl)(piperidin-1-yl)methanone]	≤ 100	> 1.5
O=C(c1cnn2c(NCc3ncccn3)cccc12)N1CCCCC1 [Example 148, piperidin-1-yl(7-((pyrimidin-2-ylmethyl)amino)pyrazolo[1,5-a]pyridin-3-yl)methanone]	≤ 100	> 1.5
Cc1nc(-c2cncc(-c3cccc4c(C(=O)N5CCCCC5)cnn34)c2)no1 [Example 319, (7-(5-(5-methyl-1,2,4-oxadiazol-3-yl)pyridin-3-yl)pyrazolo[1,5-a]pyridin-3-yl)(piperidin-1-yl)methanone]	≤ 100	> 1.5
O=C(c1cnn2c(-c3ccc(N4CCOC4=O)nc3)cccc12)N1CCCC(C(F)(F)F)C1 (centres unmarked) [Example 339, 3-(5-(3-(3-(trifluoromethyl)piperidine-1-carbonyl)pyrazolo[1,5-a]pyridin-7-yl)pyridin-2-yl)oxazolidin-2-one]	≤ 100	> 1.5
CC1CCCN(C(=O)c2cnn3c(-c4ccc(N5CCOC5=O)nc4)cccc23)C1 (centres unmarked) [Example 353, 3-(5-(3-(3-methylpiperidine-1-carbonyl)pyrazolo[1,5-a]pyridin-7-yl)pyridin-2-yl)oxazolidin-2-one]	≤ 100	> 1.5
Cn1nccc1-c1cc(-c2cccc3c(C(=O)N4CCCCC4)cnn23)cc(N2CCOCC2)n1 [Example 369, (7-(2-(1-methyl-1H-pyrazol-5-yl)-6-morpholinopyridin-4-yl)pyrazolo[1,5-a]pyridin-3-yl)(piperidin-1-yl)methanone]	≤ 100	> 1.5
Cc1nc(-c2cc(-c3cccc4c(C(=O)N5CCCCC5)cnn34)ccc2F)no1 [Example 276, [7-[4-fluoro-3-(5-methyl-1,2,4-oxadiazol-3-yl)phenyl]pyrazolo[1,5-a]pyridin-3-yl]-(1-piperidyl)methanone]	≤ 100	> 1.5
O=C(c1cnn2c(-c3ccc(N4CCOC4=O)nc3)cccc12)N1CCCCC1 [Example 316, 3-(5-(3-(piperidine-1-carbonyl)pyrazolo[1,5-a]pyridin-7-yl)pyridin-2-yl)oxazolidin-2-one]	≤ 100	> 1.5
O=C(c1cnn2c(-c3cc(F)cc(-c4noc(=O)[nH]4)c3)cccc12)N1CCCCC1 [Example 299, 3-(3-fluoro-5-(3-(piperidine-1-carbonyl)pyrazolo[1,5-a]pyridin-7-yl)phenyl)-1,2,4-oxadiazol-5(4H)-one]	≤ 100	> 1.5
O=C1NCCc2ncc(-c3cccc4c(C(=O)N5CCCCC5)cnn34)cc21 [Example 195, 3-(3-(piperidine-1-carbonyl)pyrazolo[1,5-a]pyridin-7-yl)-7,8-dihydro-1,6-naphthyridin-5(6H)-one]	≤ 100	> 1.5
O=C(c1cnn2c(-c3ccccc3)cccc12)N1CC2CCC1C2 (centres unmarked) [Example 227, (2-azabicyclo[2.2.1]heptan-2-yl)(7-phenylpyrazolo[1,5-a]pyridin-3-yl)methanone]	≤ 100	> 1.5
O=C1CN(C(=O)c2cncc(-c3cccc4c(C(=O)N5CCCCC5)cnn34)c2)CC(=O)N1 [Example 204, 4-[5-[3-(piperidine-1-carbonyl)pyrazolo[1,5-a]pyridin-7-yl]pyridine-3-carbonyl]piperazine-2,6-dione]	≤ 100	< 1.5
O=C(c1cccc(-c2cccc3c(C(=O)N4CCCCC4)cnn23)c1)N1CCC1 [Example 29, azetidin-1-yl(3-(3-(piperidine-1-carbonyl)pyrazolo[1,5-a]pyridin-7-yl)phenyl)methanone]	≤ 100	> 1.5
O=C1NCc2cc(-c3cccc4c(C(=O)N5CCCCC5)cnn34)ccc21 [Example 143, 5-(3-(piperidine-1-carbonyl)pyrazolo[1,5-a]pyridin-7-yl)isoindolin-1-one]	≤ 100	> 1.5
Cc1cnc(-c2ccc(-c3cccc4c(C(=O)N5CCCCC5)cnn34)cc2)s1 [Example 351, [7-[4-(5-methylthiazol-2-yl)phenyl]pyrazolo[1,5-a]pyridin-3-yl]-(1-piperidyl)methanone]	≤ 100	> 1.5
CN1CCC(NC(=O)c2ccc(-c3cccc4c(C(=O)N5CCCCC5)cnn34)cc2)CC1 [Example 65, N-(1-methylpiperidin-4-yl)-4-(3-(piperidine-1-carbonyl)pyrazolo[1,5-a]pyridin-7-yl)benzamide]	≤ 100	< 1.5
O=C(Nc1cccnc1)c1ccc(-c2cccc3c(C(=O)N4CCCCC4)cnn23)cn1 [Example 87, 5-(3-(piperidine-1-carbonyl)pyrazolo[1,5-a]pyridin-7-yl)-N-(pyridin-3-yl)picolinamide]	≤ 100	< 1.5
CC(C)(C)OC(=O)N1CC=C(c2cccc3c(C(=O)N4CCCCC4)cnn23)CC1 [Example 120, tert-butyl 4-(3-(piperidine-1-carbonyl)pyrazolo[1,5-a]pyridin-7-yl)-3,6-dihydropyridine-1(2H)-carboxylate]	≤ 100	> 1.5
CC(C)C1CCCN(C(=O)c2cnn3c(-c4ccc5c(c4)C(=O)NC5)cccc23)C1 (centres unmarked) [Example 400, 6-(3-(3-isopropylpiperidine-1-carbonyl)pyrazolo[1,5-a]pyridin-7-yl)isoindolin-1-one]	≤ 100	> 1.5
O=C1NCc2ccc(-c3cccc4c(C(=O)N5CC6(CCC6)C5)cnn34)cc21 [Example 390, 6-(3-(2-azaspiro[3.3]heptane-2-carbonyl)pyrazolo[1,5-a]pyridin-7-yl)isoindolin-1-one]	≤ 100	> 1.5
O=C(c1ccc(-c2cccc3c(C(=O)N4CCCCC4)cnn23)cc1)N1CCC1 [Example 61, azetidin-1-yl(4-(3-(piperidine-1-carbonyl)pyrazolo[1,5-a]pyridin-7-yl)phenyl)methanone]	≤ 100	> 1.5
CCC1CCCN(C(=O)c2cnn3c(-c4ccc(F)nc4)cccc23)C1 (centres unmarked) [Example 337, (3-ethylpiperidin-1-yl)(7-(6-fluoropyridin-3-yl)pyrazolo[1,5-a]pyridin-3-yl)methanone]	≤ 100	> 1.5
O=C(NCC1CC1)c1ccc(-c2cccc3c(C(=O)N4CCCCC4)cnn23)cc1 [Example 64, N-(cyclopropylmethyl)-4-(3-(piperidine-1-carbonyl)pyrazolo[1,5-a]pyridin-7-yl)benzamide]	≤ 100	> 1.5
NC(=O)c1ncc(-c2ccc(-c3cccc4c(C(=O)N5CCCCC5)cnn34)cc2)cn1 [Example 307, 5-[4-[3-(piperidine-1-carbonyl)pyrazolo[1,5-a]pyridin-7-yl]phenyl]pyrimidine-2-carboxamide]	≤ 100	> 1.5
COc1ccc(-c2cccc3c(C(=O)N4CCCCC4)nnn23)cc1 [Example 168, (7-(4-methoxyphenyl)-[1,2,3]triazolo[1,5-a]pyridin-3-yl)(piperidin-1-yl)methanone]	100 to 1000	
O=C(c1cc2ncc(-c3ccc4c(c3)OCO4)cc2[nH]1)N1CCCCC1 [Example 172, (6-(benzo[d][1,3]dioxol-5-yl)-1Hpyrrolo[3,2-b]pyridin-2-yl)(piperidin-1-yl)methanone]	> 1000	
O=C(c1cc2nc(-c3cccc(Cl)c3)ccc2[nH]1)N1CCCCC1 [Example 185, (5-(3-chlorophenyl)-1H-pyrrolo[3,2-b]pyridin-2-yl)(piperidin-1-yl)methanone]	100 to 1000	
O=C(c1cnn2c(-c3cc4ccccc4o3)cccc12)N1CCCCC1 [Example 123, (7-(benzofuran-2-yl)pyrazolo[1,5-a]pyridin-3-yl)(piperidin-1-yl)methanone]	≤ 100	
CC(=O)c1cnn2c(-c3ccc(C#N)cc3)cccc12 [Example 152, 4-(3-acetylpyrazolo[1,5-a]pyridin-7-yl)benzonitrile]	100 to 1000	
